{"source": "patent US12178210B2", "about": "“Insect attractant and killing system” (priority 2020, dated 2024)", "details": "40° C., 15 g, UV8 membrane, 1.6 mm orifice", "source_text": "All prototype lure devices (i.e., the attractant receptacle and permeable membrane with enclosed volatile insect attractant) were constructed using polypropylene/calcium carbonate film (UV8) for the permeable membrane and Scotchpak™ (3M) polyester laminate film for the impermeable barrier material. Each lure device measured approximately 11.5 cm×5.5 cm with a 1.6 mm ( 1/16 in) diameter spherical punch in the impermeable layer exposing the membrane and an ˜8 mm ( 5/16 in) diameter heat seal around the circumference of the punch (referred to as a ring seal). […] Prior to being deployed the lures were weighed on an analytical balance (Sartorius, Universal; resolution of 0.01 g). Prototype lures were attached to a cord that ran the length of ventilated laboratory fume hood, with 5-8 cm (2-3 in) separating each lure in an open, ventilated room at the indicated temperature (18-20° C. or 39-41° C.). Every 2-3 days the lures were removed from the cord and weighed on the same scale. Lure weight was recorded and the weight loss (g/day) was calculated. In addition to prototype lures, two controls were included in the study consisting of a current Suterra lure product (WHF lure) and a competitor product (Comp. Prod. 1).", "note": "Read-outs that look alike come from different tables or passages of the source."}
{"smiles": "N.NC(=O)O", "note": "[CM-NR, Ammonium carbamate]", "values": [{"measurement": "Attractant Release Rate (5-day average per time point)", "setting": "day 5", "result": 338.4, "unit": "mg/day"}, {"measurement": "Attractant Release Rate (5-day average per time point)", "setting": "day 10", "result": 346.8, "unit": "mg/day"}, {"measurement": "Attractant Release Rate (5-day average per time point)", "setting": "day 15", "result": 370.0, "unit": "mg/day"}, {"measurement": "Attractant Release Rate (5-day average per time point)", "setting": "day 20", "result": 413.7, "unit": "mg/day"}, {"measurement": "Attractant Release Rate (5-day average per time point)", "setting": "day 25", "result": 440.0, "unit": "mg/day"}, {"measurement": "Attractant Release Rate (5-day average per time point)", "setting": "day 30", "result": 429.7, "unit": "mg/day"}, {"measurement": "Attractant Release Rate (5-day average per time point)", "setting": "day 35", "result": 408.5, "unit": "mg/day"}, {"measurement": "Attractant Release Rate (5-day average per time point)", "setting": "day 40", "result": 193.2, "unit": "mg/day"}, {"measurement": "Attractant Release Rate (5-day average per time point)", "setting": "day 45", "result": 0.0, "unit": "mg/day"}, {"measurement": "Attractant Release Rate (5-day average per time point)", "setting": "day 49", "result": 0.0, "unit": "mg/day"}, {"measurement": "Attractant Release Rate (5-day average per time point)", "setting": "day 55", "result": 0.0, "unit": "mg/day"}]}
